According to patent US20240124442A1, “TRICYCLIC-AMIDO-BICYCLIC PRMT5 INHIBITORS” (AMGEN INC., priority 2021, published 2024):

System: HCT116 MTAP null cells
Assay: HCT116 MTAP null cell line proliferation / cell viability (CellTiter-Glo, 6 days)
Format: cell-based
Settings: 144 h; HCT116 MTAP null cells, 6 days treatment, CellTiter-Glo cell viability; read-out: HCT-116 MTAP null IC50
Procedure, shortened: (§1)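 Isogenic HCT116 pair (parental and MTAP-knockout) in RPMI 1640 + 10% FBS, treated 6 days with 8–9-point 1:3 dilutions from 1 or 10 μM top, or 22-point 1:2 dilutions from 10 or 50 μM top. Viability by CellTiter-Glo luminescence; IC50 from 4-parameter logistic fit or sigmoidal fit with Hill slope fixed at −1.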

In order of rising IC50:
1. CN(C(=O)c1cc2c(cc1F)nc(N)c1cnn(C)c12)[C@@H]1COc2cc(S(F)(F)(F)(F)F)ccc21 (single isomer, unassigned) [Example 382]  4 nM
2. CN(C(=O)c1cc2c(cc1Cl)nc(N)c1cnn(C)c12)[C@@H]1COc2nc(C(F)(F)F)ccc21 (single isomer, unassigned) [Example 387]  5 nM
3. CN(C(=O)c1cc2c(cc1Cl)nc(N)c1cnn(C)c12)[C@@H]1CCc2nc(C(F)(F)F)ccc21 (single isomer, unassigned) [Example 385]  7 nM
4. CN(C(=O)c1cc2c(cc1F)nc(N)c1cnn(C)c12)[C@@H]1COc2nc(C(F)(F)F)ccc21 (single isomer, unassigned) [Example 377]  10 nM
5. CN(C(=O)c1cc2c(cc1F)nc(N)c1cnn(C)c12)[C@@H]1COc2cc(S(C)(=O)=O)ccc21 (single isomer, unassigned) [Example 378]  10 nM
6. CCN(C(=O)c1ccc2nc(N)c3c(c2c1)CO[C@@H]3C)[C@@H]1COCc2cc(Br)ccc21 (single isomer, unassigned) [Example 396]  10 nM
7. CN(C(=O)c1cc2c3c(c(N)nc2cn1)COC3)[C@@H]1COCc2cc(Br)ccc21 (single isomer, unassigned) [Example 398]  20 nM
8. CN(C(=O)c1cc2c(cc1F)nc(N)c1cnn(C)c12)[C@@H]1COc2cc(C(F)(F)F)cc(F)c21 (single isomer, unassigned) [Example 380]  23 nM
9. C[C@H]1OCc2c1c(N)nc1ccc(C(=O)N(C)[C@@H]3COCc4cc(Br)ccc43)cc21 (single isomer, unassigned) [Example 394]  25 nM
10. Cc1nn(C)c2c1c(N)nc1cc(F)c(C(=O)N(C)[C@@H]3COc4cc(S(F)(F)(F)(F)F)ccc43)cc12 (single isomer, unassigned) [Example 391]  38 nM
11. COc1ccc2c(c1)COC[C@H]2N(C)C(=O)c1cc2c3c(c(N)nc2cc1F)COC3 (single isomer, unassigned) [Example 400]  50 nM
12. CN(C(=O)c1cc2c(cc1Cl)nc(N)c1cnn(C)c12)[C@H]1COc2nc(C(F)(F)F)ccc21 (single isomer, unassigned) [Example 388]  136 nM
13. COc1ccc2c(c1)COC[C@H]2N(C)C(=O)c1ccc2nc(N)c3c(c2c1)COC3 (single isomer, unassigned) [Example 393]  136 nM
14. CN(C(=O)c1cc2c(cc1F)nc(N)c1c2cnn1C)[C@@H]1CCc2nc(C(F)(F)F)ccc21 (single isomer, unassigned) [Example 389]  185 nM
15. CN(C(=O)c1cc2c(cc1F)nc(N)c1cnn(C)c12)[C@H]1COc2cc(C(F)(F)F)cc(F)c21 (single isomer, unassigned) [Example 381]  195 nM
16. CN(C(=O)c1cc2c(cc1F)nc(N)c1cnn(C)c12)[C@H]1COc2cc(S(F)(F)(F)(F)F)ccc21 (single isomer, unassigned) [Example 383]  380 nM
17. CN(C(=O)c1cc2c(cc1F)nc(N)c1cnn(C)c12)[C@H]1COc2cc(S(C)(=O)=O)ccc21 (single isomer, unassigned) [Example 379]  490 nM
18. CN(C(=O)c1cc2c(cc1Cl)nc(N)c1cnn(C)c12)[C@H]1CCc2nc(C(F)(F)F)ccc21 (single isomer, unassigned) [Example 386]  552 nM
19. CCN(C(=O)c1ccc2nc(N)c3c(c2c1)CO[C@@H]3C)[C@H]1COCc2cc(Br)ccc21 (single isomer, unassigned) [Example 397]  599 nM
20. C[C@H]1OCc2c1c(N)nc1ccc(C(=O)N(C)[C@H]3COCc4cc(Br)ccc43)cc21 (single isomer, unassigned) [Example 395]  696 nM
21. CN(C(=O)c1cc2c(cc1Cl)nc(N)c1cnn(C)c12)[C@]1(C)CCc2nc(C(F)(F)F)ccc21 (single isomer, unassigned) [Example 384]  869 nM
22. Cc1nn(C)c2c1c(N)nc1cc(F)c(C(=O)N(C)[C@H]3COc4cc(S(F)(F)(F)(F)F)ccc43)cc12 (single isomer, unassigned) [Example 392]  995 nM
23. CN(C(=O)c1cc2c3c(c(N)nc2cn1)COC3)[C@H]1COCc2cc(Br)ccc21 (single isomer, unassigned) [Example 399]  1330 nM
24. CN(C(=O)c1cc2c(cc1F)nc(N)c1c2cnn1C)[C@H]1CCc2nc(C(F)(F)F)ccc21 (single isomer, unassigned) [Example 390]  6550 nM

System: HCT116 WT cells
Assay: HCT116 WT (parent) cell line proliferation / cell viability (CellTiter-Glo, 6 days)
Format: cell-based
Settings: Homo sapiens, HCT-116, 144 h, 6 days treatment
Procedure, shortened: as §1

In order of rising IC50:
1. CN(C(=O)c1cc2c(cc1F)nc(N)c1cnn(C)c12)[C@@H]1COc2cc(S(F)(F)(F)(F)F)ccc21 (single isomer, unassigned) [Example 382]  63 nM
2. CN(C(=O)c1cc2c(cc1Cl)nc(N)c1cnn(C)c12)[C@@H]1COc2nc(C(F)(F)F)ccc21 (single isomer, unassigned) [Example 387]  136 nM
3. CN(C(=O)c1cc2c(cc1F)nc(N)c1cnn(C)c12)[C@@H]1COc2cc(S(C)(=O)=O)ccc21 (single isomer, unassigned) [Example 378]  239 nM
4. CCN(C(=O)c1ccc2nc(N)c3c(c2c1)CO[C@@H]3C)[C@@H]1COCc2cc(Br)ccc21 (single isomer, unassigned) [Example 396]  272 nM
5. CN(C(=O)c1cc2c(cc1Cl)nc(N)c1cnn(C)c12)[C@@H]1CCc2nc(C(F)(F)F)ccc21 (single isomer, unassigned) [Example 385]  297 nM
6. CN(C(=O)c1cc2c(cc1F)nc(N)c1cnn(C)c12)[C@@H]1COc2nc(C(F)(F)F)ccc21 (single isomer, unassigned) [Example 377]  595 nM
7. CN(C(=O)c1cc2c3c(c(N)nc2cn1)COC3)[C@@H]1COCc2cc(Br)ccc21 (single isomer, unassigned) [Example 398]  911 nM
8. Cc1nn(C)c2c1c(N)nc1cc(F)c(C(=O)N(C)[C@@H]3COc4cc(S(F)(F)(F)(F)F)ccc43)cc12 (single isomer, unassigned) [Example 391]  1040 nM
9. C[C@H]1OCc2c1c(N)nc1ccc(C(=O)N(C)[C@@H]3COCc4cc(Br)ccc43)cc21 (single isomer, unassigned) [Example 394]  1440 nM
10. CN(C(=O)c1cc2c(cc1F)nc(N)c1cnn(C)c12)[C@@H]1COc2cc(C(F)(F)F)cc(F)c21 (single isomer, unassigned) [Example 380]  1540 nM
11. COc1ccc2c(c1)COC[C@H]2N(C)C(=O)c1cc2c3c(c(N)nc2cc1F)COC3 (single isomer, unassigned) [Example 400]  2110 nM
12. COc1ccc2c(c1)COC[C@H]2N(C)C(=O)c1ccc2nc(N)c3c(c2c1)COC3 (single isomer, unassigned) [Example 393]  4070 nM
13. CN(C(=O)c1cc2c(cc1F)nc(N)c1cnn(C)c12)[C@H]1COc2cc(S(F)(F)(F)(F)F)ccc21 (single isomer, unassigned) [Example 383]  5660 nM
14. CN(C(=O)c1cc2c(cc1Cl)nc(N)c1cnn(C)c12)[C@H]1COc2nc(C(F)(F)F)ccc21 (single isomer, unassigned) [Example 388]  7540 nM
15. Cc1nn(C)c2c1c(N)nc1cc(F)c(C(=O)N(C)[C@H]3COc4cc(S(F)(F)(F)(F)F)ccc43)cc12 (single isomer, unassigned) [Example 392]  8300 nM
16. C[C@H]1OCc2c1c(N)nc1ccc(C(=O)N(C)[C@H]3COCc4cc(Br)ccc43)cc21 (single isomer, unassigned) [Example 395]  10000 nM
17. CN(C(=O)c1cc2c3c(c(N)nc2cn1)COC3)[C@H]1COCc2cc(Br)ccc21 (single isomer, unassigned) [Example 399]  10000 nM
18. CN(C(=O)c1cc2c(cc1F)nc(N)c1cnn(C)c12)[C@H]1COc2cc(C(F)(F)F)cc(F)c21 (single isomer, unassigned) [Example 381]  11100 nM
19. CN(C(=O)c1cc2c(cc1F)nc(N)c1cnn(C)c12)[C@H]1COc2cc(S(C)(=O)=O)ccc21 (single isomer, unassigned) [Example 379]  13500 nM
20. CN(C(=O)c1cc2c(cc1Cl)nc(N)c1cnn(C)c12)[C@H]1CCc2nc(C(F)(F)F)ccc21 (single isomer, unassigned) [Example 386]  13600 nM
21. CN(C(=O)c1cc2c(cc1Cl)nc(N)c1cnn(C)c12)[C@]1(C)CCc2nc(C(F)(F)F)ccc21 (single isomer, unassigned) [Example 384]  17200 nM
22. CN(C(=O)c1cc2c(cc1F)nc(N)c1c2cnn1C)[C@@H]1CCc2nc(C(F)(F)F)ccc21 (single isomer, unassigned) [Example 389]  17200 nM
23. CCN(C(=O)c1ccc2nc(N)c3c(c2c1)CO[C@@H]3C)[C@H]1COCc2cc(Br)ccc21 (single isomer, unassigned) [Example 397]  18700 nM
24. CN(C(=O)c1cc2c(cc1F)nc(N)c1c2cnn1C)[C@H]1CCc2nc(C(F)(F)F)ccc21 (single isomer, unassigned) [Example 390]  25000 nM
